Patent publication US11566024B2 (CHANGZHOU QIANHONG BIOPHARMA CO., LTD, priority 2018, dated 2023)

How the values were obtained:
[1] = Equilibrium solubility of crystal forms under simulated in vivo conditions; type: physicochemical; settings: simulated in vivo conditions (pH=2.0, 4.6, 6.8)
Hygroscopicity (DVS) = type: physicochemical; settings: for hygroscopicity class (in words) / hygroscopic weight gain: at 80% humidity; for hygroscopic weight gain: tartrate; for hygroscopicity (in words): DVS experiments on the Active Pharmaceutical Ingredients
[2] = Conversion experiments between the crystal forms; type: physicochemical; settings: conversion between Crystal Form A and Form B
[3] = Preliminary stability tests (high temperature, high humidity, illumination); type: physicochemical; settings: high humidity, and illumination, versus free base and other salt forms
Description: However, unlike phosphates and the like, the above increase in solubility is not accompanied by a significant increase in hygroscopicity. […] The above and other advantages will be favorable for overcoming various challenges faced by the development of pharmaceutical products containing selective CDK 9 kinase inhibitors of Formula I.

physchem = settings: for solubility: 25 °C, thermodynamic from solid
Description: Perform scale-up experiments on the above six salts to determine solubilities of various salts in different pH buffers and deionized water, and compare with the free base.

## CNc1nc(C)c(-c2nc(Nc3cccc(S(N)(=O)=O)c3)ncc2F)s1.O=C(O)C(O)C(O)C(=O)O [Form A, 3-(5-fluoro-4-(4-methyl-2-(methylamino)thiazol-5-yl)pyrimidin-2-ylamino)-benzenesulfonamide tartrate]
[1]
  equilibrium solubility (in words): greater than that of Form B
Hygroscopicity (DVS)
  hygroscopicity class (in words): non-hygroscopic
  hygroscopic weight gain: 0.22%
[2]
  crystal form stability (in words): more stable crystal form

## CNc1nc(C)c(-c2nc(Nc3cccc(S(N)(=O)=O)c3)ncc2F)s1.O=C(O)C(O)C(O)C(=O)O [Form B, 3-(5-fluoro-4-(4-methyl-2-(methylamino)thiazol-5-yl)pyrimidin-2-ylamino)-benzenesulfonamide tartrate]
Hygroscopicity (DVS)
  hygroscopicity class (in words): non-hygroscopic
  hygroscopic weight gain: 0.11%

## CNc1nc(C)c(-c2nc(Nc3cccc(S(N)(=O)=O)c3)ncc2F)s1 [LS007, 3-(5-fluoro-4-(4-methyl-2-(methylamino)thiazol-5-yl)pyrimidin-2-ylamino)-benzenesulfonamide]
Hygroscopicity (DVS)
  hygroscopicity (in words): very low hygroscopicity

## CNc1nc(C)c(-c2nc(Nc3cccc(S(N)(=O)=O)c3)ncc2F)s1.O=P(O)(O)O [Phosphate]
Hygroscopicity (DVS)
  hygroscopicity (in words): highest hygroscopicity
Hygroscopicity (DVS); DVS, 60% RH
  water absorbed: 11.71%

## CNc1nc(C)c(-c2nc(Nc3cccc(S(N)(=O)=O)c3)ncc2F)s1.O=C(O)C(O)C(O)C(=O)O [Tartrate, 3-(5-fluoro-4-(4-methyl-2-(methylamino)thiazol-5-yl)pyrimidin-2-ylamino)-benzenesulfonamide tartrate]
[3]
  stability (in words): better stability
Hygroscopicity (DVS)
  hygroscopicity (in words): lowest hygroscopicity
physchem; pH 2, aqueous buffer
  solubility: 4300 µg/mL
physchem; pH 4.5, aqueous buffer
  solubility: 7.5 µg/mL
physchem; pH 6.8, aqueous buffer
  solubility: 3.7 µg/mL
physchem; water
  solubility: 418 µg/mL
physchem; pH 2.0 buffer and deionized water, HPLC
  solubility compared to the raw materials (in words): significantly increased
